Results as given in patent publication US9115165B2, “Tetracyclic anthraquinone antibiotic derivatives with high activity, process for preparing the same and use thereof” (Tianjin Hemay Bio-Tech Co., Ltd., priority 2008, dated 2015).
Converted amounts (≈) assume the structure as drawn. Where two headings read alike, the source gives them in different places.

Key:
HEPG-2 = test: Cytotoxicity assay (MTS/MTT), HEPG-2 cells; format: cell-based, human; details: read-out: Half-Inhibitory Concentration of Cells Growth (EC50), HEPG-2
Description: HEPG-2: human liver cancer cell strains;
(§1) Cells were seeded into RPMI 1640 cell culture solution containing 10% fetal bovine serum (100 ku/L of penicillin and 100 ku/L of streptomycin were supplemented). The culture dish was placed in a cell incubator containing 5% CO2 at 37° C. The culture solution was changed once every 2-3 days. Cells were digested with 0.25% trypsin liquid, passaged and collected.
(§2) Cells during the logarithmic growth phase were formulated into a cell suspension having a desired concentration with RPMI 1640 cell culture solution containing 10% fetal bovine serum. The cell suspension was added onto 96 well cell culture plate at 3000-5000 per well (100 μl). After incubating for 24 hours, 100 μl of the test substances with different concentration was added per well. There were four parallel wells for each concentration in this plate. After incubating for 72 to 120 hours, the supernatant was discarded. To each well was added 100 μl of new formulated 0.5 mg/ml MTT serum-free culture solution. After incubating for 4 hours at 37° C., the supernatant was discarded. Formazane was dissolved with 200 μl DMSO. After slightly oscillating for 15 min, absorbance values (OD value) at the detective wavelength of 570 nm and the reference wavelength of 450 nm were determined with enzyme labeling instrument.
(§3) Data was represented by x±s. The inhibition rate=(OD value of the control group−OD value of the administration group)/OD value of the control group×100%. The maximum inhibition rate Imax and the half effective concentration (IC50) represent the anticancer effects. Figures were drawn with MicroCal Origin software. The inhibition curve of the test substance to the growth of tumor cells was fitted by Four Parameters Logistic Program of the software. The half effective concentration (IC50: μg/ml) for inhibiting the proliferation of tumor cells was calculated.
(§4) The exposure concentrations of the test substance were 0.001 μg/ml, 0.003 μg/ml, 0.009 μg/ml, 0.027 μg/ml, 0.082 μg/ml, 0.247 μg/ml, 0.741 μg/ml, 2.222 μg/ml, 6.667 μg/ml and 20 μg/ml. The exposure concentrations of doxorubicin (positive drug) were 1.25 μg/ml, 5 μg/ml, 20 μg/ml. In a 96-well plate, 3000-5000 cells were inoculated in each well and there were four parallel wells for each concentration. Table 1 lists the growth inhibition rate of the compounds against Lovo cells at concentration of 1 μM. Table 3 lists the inhibition rate of the compounds against the hyperplasia of MCF-7 human breast cancer cells at various concentrations.

Lovo cells = test: Cytotoxicity assay (MTS/MTT), growth inhibition of Lovo cells; format: cell-based, human; details: concentration of 1 μM
Description: LOVO: human colon cancer cell strains;
as §1, §2, §3, §4

A549 cell = test: Cytotoxicity assay (MTS/MTT), A549 cells; format: cell-based, human; details: read-out: Half-Inhibitory Concentration of Cells Growth (EC50), A549 cell
Description: A549: human lung cancer cell strains;
as §1, §2, §3, §4

[1] = system: MCF-7 human breast cancer cells; test: Cytotoxicity assay (MTS/MTT), MCF-7 cells; format: cell-based; details: for EC50: read-out: Half-Inhibitory Concentration of Cells Growth (EC50), MCF-7 cell
Description: MCF-7: human breast cancer cell strains;
as §1, §2, §3, §4

HCT-8 cell = test: Cytotoxicity assay (MTS/MTT), HCT-8 cells; format: cell-based, human; details: read-out: Half-Inhibitory Concentration of Cells Growth (EC50), HCT-8 cell
Description: HCT-8: human colon cancer cell strains;
as §1, §2, §3, §4

Kunming white mice [2] = test: In vivo MTD test in mice; details: for Abnormality on the body surface / Change of body weight / Mortality rate: tail vein injection
Description: Experiment purpose: preliminary investigation on in vivo toxicity of the compound in Example 1 in mice
Experiment animal: Kunming white mice 20±2 g, purchased from the animal housing in Institute of Radiation Medicine, Chinese Academy of Medical Sciences. Animal license No.: SCXK(JIN)2005-0001.
Preparation of drug solution: After the drug was vortexed to dissolve with 0.5% (V/V) of DMSO, 5% (V/V) of RH40 (ethoxylated hydrogenated castor oil) was added. After mixing with vortex, the volume was determined with normal saline.
(1) Single administration: Nine healthy Kunming male white mice, of which the body weights are 20±2 g, were divided into three groups: 2 mice belong to the control group; 6 mice belong to 20 mg/kg group; 1 mouse belongs to 30 mg/kg group. 20 mg/kg and 30 mg/kg of the compound in Example 1 were administrated once via tail vein injection to the mice in the administration group. The same volume of a solvent was administrated as control to the mice in the control group. After administration, conditions such as action, reflex, locomotor activity and the like of the mice were observed within one hour. Subsequently, the body weights of the mice were recorded every day. Having observed for 14 days after drug withdrawal, the mice were anatomized to observe whether their main organs have an obvious abnormality.
(2) Multiple administrations: Twelve healthy Kunming white mice including six male mice and six female mice, of which the body weights are 20±2 g, were divided into two groups: […]. 10 mg/kg of the test drug was administrated once every three days via tail vein injection to the mice in the administration group. The same volume of a solvent was administrated as the control to the mice in the control group. The mice in each group were administrated five times. After each administration, conditions such as action, reflex, locomotor activity and the like of the mice were observed within one hour. The body weights of mice were recorded every day. Having been fed normally for one week after drug withdrawal, the mice were anatomized to observe whether their main organs have an obvious abnormality.

Kunming white mice [3] = details: reference value given in the conclusion; cited from earlier work
transplanted tumor = transplanted tumor in mice; cited from earlier work
[4] = folds of doxorubicin; cited from earlier work
[5] = MCF-7, compound concentration 0.001 μg/ml
[6] = MCF-7, compound concentration 0.003 μg/ml
[7] = MCF-7, compound concentration 0.009 μg/ml
[8] = MCF-7, compound concentration 0.027 μg/ml
[9] = MCF-7, compound concentration 0.082 μg/ml
[10] = MCF-7, compound concentration 0.247 μg/ml
[11] = MCF-7, compound concentration 0.741 μg/ml
[12] = MCF-7, compound concentration 2.222 μg/ml
[13] = MCF-7, compound concentration 6.667 μg/ml
[14] = MCF-7, compound concentration 20 μg/ml
[15] = multiple administrations, 10 mg/kg once every three days, five times
[16] = single administration, 20 mg/kg and 30 mg/kg

Compound: COc1cccc2c1C(=O)c1c(O)c3c(c(O)c1C2=O)CC(O)(C(=O)COC(=O)C(C)N)CC3OC1CC(n2cccc2)C(O)C(C)O1.Cl (stereo not shown) [Example 38, 3′-pyrrolyldoxorubicin-14-oxo-alaninate hydrochloride]
- EC50 (HEPG-2; HEPG-2): 1060 nM
- Growth Inhibition Rate (%) (Lovo cells): 78.44%
- EC50 (A549 cell; A549 cell): 230 nM
- EC50 ([1]; MCF-7 cell): 870 nM
- EC50 (HCT-8 cell; HCT-8 cell): 590 nM

Compound: COc1cccc2c1C(=O)c1c(O)c3c(c(O)c1C2=O)C[C@@](O)(C(=O)CO)C[C@@H]3O[C@H]1C[C@H](n2cccc2)[C@H](O)[C@H](C)O1 [Example 1, 3′-pyrrolyldoxorubicin]
- EC50 (HEPG-2; HEPG-2): 810 nM
- Growth Inhibition Rate (%) (Lovo cells; 1 µM): 80.62%
- EC50 (A549 cell; A549 cell): 61 nM
- A570 nm-OD Values [1, 5]: 1.629 ± 0.257
- Inhibition Rate (%) [1, 5]: 4.27%
- A570 nm-OD Values [1, 6]: 1.744 ± 0.176
- Inhibition Rate (%) [1, 6]: −2.49%
- A570 nm-OD Values [1, 7]: 1.443 ± 0.079
- Inhibition Rate (%) [1, 7]: 15.17%
- A570 nm-OD Values [1, 8]: 1.238 ± 0.072
- Inhibition Rate (%) [1, 8]: 27.22%
- A570 nm-OD Values [1, 9]: 0.883 ± 0.041
- Inhibition Rate (%) [1, 9]: 48.09%
- A570 nm-OD Values [1, 10]: 0.703 ± 0.058
- Inhibition Rate (%) [1, 10]: 58.68%
- A570 nm-OD Values [1, 11]: 0.461 ± 0.026
- Inhibition Rate (%) [1, 11]: 72.89%
- A570 nm-OD Values [1, 12]: 0.302 ± 0.030
- Inhibition Rate (%) [1, 12]: 82.26%
- A570 nm-OD Values [1, 13]: 0.320 ± 0.030
- Inhibition Rate (%) [1, 13]: 81.18%
- A570 nm-OD Values [1, 14]: 0.289 ± 0.019
- Inhibition Rate (%) [1, 14]: 83.03%
- EC50 ([1]; MCF-7 cell): 210 nM
- Imax (maximum inhibition rate) ([1]; MCF-7 human breast cancer cells): Imax = 83.03%
- IC50 ([1]; MCF-7 human breast cancer cells, fitted inhibition curve): 0.06023 ± 0.01528 µg/mL (≈ 0.101 µM)
- Maximal tolerance dose (MTD) relative to doxorubicin (Kunming white mice [2]; mice, compared with doxorubicin MTD 8-12 mg/kg): at least more than five folds higher than that of doxorubicin
- Abnormality on the body surface (Kunming white mice [2]; [15]): no obvious abnormality on the body surface was observed
- Change of body weight (Kunming white mice [2]; [15]): The body weight of each mouse increased slowly after administration
- Mortality rate (Kunming white mice [2]; [15]): Death was not found
- Abnormality on the body surface (Kunming white mice [2]; [16]): no obvious abnormality on the body surface was observed
- Change of body weight (Kunming white mice [2]; [16]): The body weight of each mouse increased after administration
- Mortality rate (Kunming white mice [2]; single administration, 20 mg/kg and 30 mg/kg, observed 14 days): Death was not found
- EC50 (HCT-8 cell; HCT-8 cell): 490 nM

Compound: 3′-pyrrolyl-idarubicin [Example 3]
- Growth Inhibition Rate (%) (Lovo cells): 88.9%

Compound: 3′-pyrrolyl-5-iminodaunomycin [Example 2]
- Growth Inhibition Rate (%) (Lovo cells): 74.0%

Compound: COc1cccc2c1C(=O)c1c(O)c3c(c(O)c1C2=O)CC(O)(C(=O)CO)CC3OC1CC(N2C(=O)CCC2=O)C(O)C(C)O1 (stereo not shown) [Example 7, 3′-succinimidodoxorubicin]
- Growth Inhibition Rate (%) (Lovo cells): 83.31%

Compound: 3′-pyrrolyl-esorubicin [Example 4]
- Growth Inhibition Rate (%) (Lovo cells): 40.71%

Compound: COc1cccc2c1C(=O)c1c(O)c3c(c(O)c1C2=O)CC(O)(C(=O)COC(=O)CCC(=O)O)CC3OC1CC(n2cccc2)C(O)C(C)O1 (stereo not shown) [Example 13, 3′-pyrrolyldoxorubicin-14-oxo-hydrogen succinate]
- EC50 (HEPG-2; HEPG-2): 150 nM
- Growth Inhibition Rate (%) (Lovo cells): 76.05%
- EC50 (A549 cell; A549 cell): 2360 nM
- EC50 ([1]; MCF-7 cell): 930 nM
- EC50 (HCT-8 cell; HCT-8 cell): 1870 nM

Compound: COc1cccc2c1C(=O)c1c(O)c3c(c(O)c1C2=O)C[C@@](O)(C(=O)CO)C[C@@H]3O[C@H]1C[C@H](N)[C@H](O)[C@H](C)O1 [Doxorubicin, doxorubicin, reference compound]
- EC50 (HEPG-2; Homo sapiens, HepG2): 2000 nM
- inhibition at 1 µM (Lovo cells; Homo sapiens, read-out: Growth Inhibition Rate (%)): 50.4%
- EC50 (A549 cell; Homo sapiens, A549): 660 nM
- EC50 ([1]; Homo sapiens, MCF7): 1200 nM
- Maximal tolerance dose (MTD) (Kunming white mice [3]): 8 to 12 mg/kg
- EC50 (HCT-8 cell; Homo sapiens, HCT-8): 900 nM

Compound: COc1cccc2c1C(=O)c1c(O)c3c(c(O)c1C2=O)C[C@@](O)(C(=O)CO)C[C@@H]3O[C@H]1C[C@H](n2cccc2)[C@H](O)[C@H](C)O1 [Example 5, 3′-pyrrolyldoxorubicin]
- Growth Inhibition Rate (%) (Lovo cells): 67.25%

Compound: COc1cccc2c1C(=O)c1c(O)c3c(c(O)c1C2=O)C[C@@](O)(C(=O)CO)C[C@@H]3O[C@H]1C[C@H](N2C=CCC2)[C@H](O)[C@H](C)O1 [AN-201, 2-pyrrolinyl-doxorubicin]
- Anticancer activity at the maximal tolerance dose (transplanted tumor): the anticancer activity was not observed at the maximal tolerance dose
- Activity in the cellular level relative to doxorubicin [4]: 300-1000 folds

Compound: 3′-pyrrolyl-4′-(pyran-2-yl)doxorubicin [Example 6]
- Growth Inhibition Rate (%) (Lovo cells): 90.94%
